Values of other authors in patent publication US6475978B1, “Method of making water-softening and detergent compositions” (Unilever Home & Personal Care USA a division of Conopco, …, priority 1999, dated 2002).
Where two headings read alike, the source gives them in different places.

Settings: at 20° C.
[1] = materials with solubility of less than 50 g per 100 g water

| Structure (SMILES) | Water Solubility [1] | Water Solubility (materials with solubility of at least 50 g per 100 g water) |
| --- | --- | --- |
| O=P(O)(O)OP(=O)(O)OP(=O)(O)O [Sodium tripolyphosphate anhydrous] | 15 g/100 g | – |
| O=BO[O-].[Na+] [Sodium perborate anhydrous] | 3.7 g/100 g | – |
| NC(N)=O [Urea] | – | >100 g/100 g |
